The source of these data is US8507562B2, “Synthesis of (1)-beta-elemene, (-)-beta-elemenal, (-)-beta-elemenol, (-)-beta-elemene fluoride and their analogues, intermediates, and composition and uses thereof” (HYWE Pharmaceuticals, Inc., priority 2004, dated 2013).

Values after ≈ are worked out from the molar mass of the structure shown. Read-outs that look alike come from different tables or passages of the source.

One series relates to A549 lung cancer. Put plainly: MTT survival assay. Conditions: 2 × 10^4 cells/ml. For orientation: Tetrazolium dyes change colour on reduction, which living cells bring about.
In a further series the test system is H-460 lung cancer. Put plainly: MTT survival assay. The format is cell-based, human.
A further series can be described thus: Solubility comparison. The format is physicochemical.
The subject of the next series is MCAS ovarian cancer. Put plainly: MTT survival assay. The format is cell-based, human. Conditions: read-out: Cisplatin IC50, combination: Elemene at IC20 of the cell line.
The next series has as its system U-87 brain tumor. In words: MTT survival assay. The following applies: read-out: Cisplatin IC50; U-87; combination: Elemene at IC20 of the cell line. Format: cell-based, human.
A further series concerns PC-3 prostate cancer. Put plainly: MTT survival assay. The following applies: read-out: Cisplatin IC50, combination: Elemene at IC20 of the cell line. Format: cell-based, human.
For series [1], the system named is CCL-2 (Hela) cervical cancer. Put plainly: MTT survival assay. The format is cell-based, human. The following applies: read-out: Cisplatin IC50, combination: Elemene at IC20 of the cell line.
The subject of the next series is A-172 brain tumor. Put plainly: MTT survival assay. Format: cell-based, human. The following applies: read-out: Cisplatin IC50; A-172; combination: Elemene at IC20 of the cell line.
In the next series the test system is DU-145 prostate cancer. Put plainly: MTT survival assay. The format is cell-based, human. The following applies: read-out: Cisplatin IC50, combination: Elemene at IC20 of the cell line.
A further series concerns H-69 lung cancer. In words: MTT survival assay. Format: cell-based, human. The following applies: read-out: Cisplatin IC50, combination: Elemene at IC20 of the cell line.
Series [2] relates to Colon Cancer Cells Caco-2. In words: MTS cell viability assay. Format: cell-based, human. The following applies: combinations with Elemene 100 μg/ml, n = 8.
In series [3] the test system is Colon Cancer Cells Colo 205. In words: MTS cell viability assay. Conditions: Colo 205, drug alone.
Series [4] deals with late-stage colorectal cancer. Conditions: enema twice a day for 10 days; Elemene 200 mg (17 patients), 5-FU 500 mg (14 patients); cited from earlier work.
The subject of series [5] is Colon Cancer Cells HCT-15. Put plainly: MTS cell viability assay. Conditions: combinations with Elemene 160 μg/ml, n = 8.
Series [6] concerns Colon Cancer Cells HCT-116. In words: MTS cell viability assay. Format: cell-based, human. Conditions: combinations with Elemene 160 μg/ml, n = 8.
The subject of another series is SKOV3/CIS cells. Conditions: cited from earlier work.
The test system of series [7] is human glioma SHG-44G (xenograph under skin). In words: Xenograph under skin, injection directly into tumor. Conditions: listed as printed Pos. Cont. VM-26: 60 mg/kg it × 10 qd. The format is in vivo, nude mice. From the text:
(§1) The mice were killed after 3 weeks.
Nude mice grew on the cengliu rack.

For series [8], the system named is human glioma SHG44 (xenograph in brain). Put plainly: Tumor xenographed in mice brain, survival. Conditions: 5 mg/kg/time ip × 7 qd. The format is in vivo, nude mice. On the procedure: (§2) Mice model with tumor xenographed in mice brain: Glioma cell line G-422 or SHG44 (log phase) were diluted to 2×10^7/ml in cell culture hood (no bacteria environment). Each mouse was injected with 0.05 ml of tumor cell in its brain. […] The survival time of these mice was recorded in the next 30 days. The life extension was calculated using the following formula: Life Extension Rate=[( […])/Average survival days of control group[×100 Results: […]

The test system of series [9] is human glioma G422 (xenograph in brain). In words: Tumor xenographed in mice brain, survival. Conditions: 5 mg/kg/time ip × 7 qd. The format is in vivo. On the procedure:
as §2

The subject of series [10] is human glioma G-422 (xenograph under skin). Put plainly: Xenograph under skin, injection directly into tumor. Format: in vivo, mice. Conditions: 5 mg ip × 10 qd.
Excerpt: as §1

Take `C=C[C@]1(C)CC[C@@H](C(=C)CO)C[C@H]1C(=C)C` [(−)-beta-elemenol, (−)-Beta-elemenol]: the IC50 is 74.0 mg/L (≈ 336 µM) in the series on A549 lung cancer (A549, 24 h); 60.1 mg/L (≈ 273 µM) in the series with A549 lung cancer (A549, 48 h); 81.0 mg/L (≈ 368 µM) in the series with A549 lung cancer (A549, 72 h); 111.0 mg/L with H-460 lung cancer (H460, 24 h, 2 × 10^4 cells/ml); 69.0 mg/L in the series on H-460 lung cancer (H460, 48 h, 2 × 10^4 cells/ml); 74.5 mg/L in the series on H-460 lung cancer (H460, 72 h, 2 × 10^4 cells/ml). Besides, the “solubility relative to (−)-beta-elemene” value in “Solubility comparison” is “more soluble than (−)-beta-elemene”.

For the molecule `N.N.[Cl][Pt][Cl]` [Cisplatin], the IC50 in the series with MCAS ovarian cancer stood at 38 µM; in the series on U-87 brain tumor, 10 µM; in the series with PC-3 prostate cancer it was 80 µM; in [1] it was 27.5 µM; with H-460 lung cancer (read-out: Cisplatin IC50, H-460, combination: Elemene at IC20 of the cell line), 80 µM; with A-172 brain tumor it was 24 µM. The 50% inhibitory concentration (IC50) with DU-145 prostate cancer is 384 µM; in the series on H-69 lung cancer, 8 µM.

Take `O=c1[nH]cc(F)c(=O)[nH]1` [Lr 5-Fu]: the IC50 in [2] (Caco-2, 4 hr/24 hr × 2) is 17.0 ± 3.29 mg/L; in series [2] (Caco-2, 4 hr/24 hr × 3), 13.8 ± 2.27 mg/L; in series [2] (Caco-2, 4 hr/24 hr) it was 28.8 ± 9.87 mg/L; in series [2] (Caco-2, 4 hr) it was 189 ± 27.1 mg/L; in series [2] (Caco-2, 8 hr), 102 ± 13.0 mg/L; in series [2] (Caco-2, 12 hr), 42.5 ± 9.84 mg/L. Also, the IC50 in [2] (Caco-2, 24 hr) was found to be 23.9 ± 4.37 mg/L; in series [2] (Caco-2, 48 hr), 18.3 ± 2.83 mg/L; in series [2] (Caco-2, 72 hr), 12.6 ± 2.07 mg/L; in series [3] (Time 4 hr, n = 8), 117 ± 9.02 mg/L (≈ 899 µM); in [3] (Time 4 hr/24 hr × 2, n = 8), 26.3 ± 5.34 mg/L (≈ 202 µM); in [3] (Time 4 hr/24 hr × 3, n = 8), 11.6 ± 4.13 mg/L (≈ 89.2 µM). Further, the IC50 was found to be 34.6 ± 4.76 mg/L (≈ 266 µM) in [3] (Time 4 hr/24 hr, n = 8); 91.3 ± 5.62 mg/L (≈ 702 µM) in series [3] (Time 8 hr, n = 8); 36.7 ± 4.66 mg/L (≈ 282 µM) in [3] (Time 12 hr, n = 8); 21.1 ± 6.06 mg/L (≈ 162 µM) in [3] (Time 24 hr, n = 8); 13.2 ± 1.44 mg/L (≈ 101 µM) in series [3] (Time 48 hr, n = 8); 11.0 ± 1.60 mg/L (≈ 84.6 µM) in series [3] (Time 72 hr, n = 8). Besides, the IC50 in series [5] (HCT-15, 4 hr/24 hr × 2) came to 40.0 ± 7.01 mg/L; in [5] (HCT-15, 4 hr/24 hr × 3) it was 28.4 ± 7.62 mg/L; in series [5] (HCT-15, 4 hr/24 hr) it was 80.0 ± 13.6 mg/L; in series [5] (HCT-15, 8 hr), 68.1 ± 7.63 mg/L; in [5] (HCT-15, 12 hr), 52.1 ± 5.09 mg/L; in series [5] (HCT-15, 48 hr), 18.4 ± 4.32 mg/L. For the same molecule, the IC50 in [5] (HCT-15, 72 hr) was determined as 7.95 ± 3.80 mg/L; in series [6] (HCT-116, 4 hr/24 hr × 2) it was 42.7 ± 4.78 mg/L; in series [6] (HCT-116, 4 hr/24 hr × 3) it was 22.4 ± 8.75 mg/L; in series [6] (HCT-116, 4 hr/24 hr), 85.1 ± 8.89 mg/L; in series [6] (HCT-116, 4 hr) it was 83.3 ± 12.1 mg/L; in [6] (HCT-116, 8 hr) it was 43.1 ± 13.1 mg/L. The IC50 came out at 21.7 ± 3.70 mg/L in [6] (HCT-116, 12 hr); 11.8 ± 2.54 mg/L in [6] (HCT-116, 24 hr); 7.4 ± 1.82 mg/L in [6] (HCT-116, 48 hr); 4.5 ± 0.74 mg/L in series [6] (HCT-116, 72 hr). Further, in [4], the CR entry is reported as “CR: 57.1%”. In addition, the PR entry in series [4] is “PR: 21.4%”.

Consider `COc1ccc(CCN(C)CCCC(C#N)(c2ccc(OC)c(OC)c2)C(C)C)cc1OC` (centres unmarked) [Verapamil], for which the “enhancement of sensitivity to doxorubicin” value with SKOV3/CIS cells was 260 fold.

In the case of `COc1cc([C@@H]2c3cc4c(cc3[C@@H](O[C@@H]3O[C@@H]5CO[C@@H](c6cccs6)O[C@H]5[C@H](O)[C@H]3O)[C@H]3COC(=O)[C@H]23)OCO4)cc(OC)c1O` [VM26, reference compound], the “Inhibition Rate %” value in series [7] was found to be 61.08%; in series [10], 85.78%. In addition, the “Tumor Weight X ± SD” value is 0.72 ± 0.12 in series [7] (in g (unit assumed)) and 0.32 ± 0.12 in series [10] (in g (unit assumed)). Also, the “Average Life Span (day) X± SD” value in series [8] came out at 30.8 ± 3.7 days; in [9] it was 21.5 ± 3.4 days. Further, in series [8] (compared to control), the “Survival time as % of control (T/C)” value worked out at 196.75%.

The term IC50 denotes the concentration at which inhibition is half-maximal.
